pIC50: −log10 of the molar value. Where a SMILES comes first, the peptide text is derived from it. Bridges are numbered along the chain shown (N, C = ends). [ ]: non-standard residue; d: D form. The star is where a group is joined. ξ: configuration not given here. Phe(4-COOH) = N[C@@H](Cc1ccc(C(=O)O)cc1)C(=O)O; Phe(4-CH2NH2) = NCc1ccc(C[C@H](N)C(=O)O)cc1; Bip = N[C@@H](Cc1ccc(-c2ccccc2)cc1)C(=O)O; Phe(3-Me) = Cc1cccc(C[C@H](N)C(=O)O)c1; Val(3-OH) = CC(C)(O)[C@H](N)C(=O)O; 4Pal = N[C@@H](Cc1ccncc1)C(=O)O; 2Thi = N[C@@H](Cc1cccs1)C(=O)O; Cha = N[C@@H](CC1CCCCC1)C(=O)O; Cit = NC(=O)NCCC[C@H](N)C(=O)O; Ile(3ξ) = CCC(C)[C@H](N)C(=O)O; Carboxymethyl = O=C(O)C*; Nle = CCCC[C@H](N)C(=O)O; Orn = NCCC[C@H](N)C(=O)O; Dab = NCC[C@H](N)C(=O)O; Dap = NC[C@H](N)C(=O)O; Propargyl = C#CC*
molecular target: T1, human PD-1 / PD-L1-Ig binding on Jurkat cell line over-expressing human PD-1 (Jurkat-PD-1) (Homo sapiens, UniProt Q15116); experiment: Jurkat-PD-1 Cell Binding High-Content Screening Assay (CBA); format: cell-based; conditions: Jurkat-PD-1 cells, PE-labeled PD-L1-Ig 20 nM final; read-out: Jurkat HPD1_PDL1 IC50
T1 construct: expressed in transfected cells; host or cells: Jurkat
Method in brief: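 Cell-bound PE-labeled PD-L1-Ig (20 nM final, 1 h) measured by high-content imaging after fixation and Hoechst 33342 counterstain. Compound was applied first for 2 h at 37° C. to Jurkat cells over-expressing human PD-1 in DMEM with 10% FCS.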

T1 sequence (Q15116 25-288): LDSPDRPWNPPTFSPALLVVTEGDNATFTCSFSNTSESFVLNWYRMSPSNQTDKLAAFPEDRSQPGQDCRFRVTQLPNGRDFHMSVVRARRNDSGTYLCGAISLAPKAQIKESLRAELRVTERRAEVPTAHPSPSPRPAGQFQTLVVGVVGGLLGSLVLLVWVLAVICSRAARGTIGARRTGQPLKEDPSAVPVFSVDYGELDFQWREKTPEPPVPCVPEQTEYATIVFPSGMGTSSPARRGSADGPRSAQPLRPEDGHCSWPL

Point of comparison: `CC(C)C[C@@H]1NC(=O)[C@H](Cc2c[nH]c3ccccc23)NC(=O)[C@H](CC(=O)O)NC(=O)[C@H](Cc2ccc(O)cc2)NC(=O)[C@H](Cc2ccccc2)NC(=O)CSC[C@@H](C(=O)N[C@@H](C)C(N)=O)NC(=O)[C@H](CO)NC(=O)[C@H](C(C)C)NC(=O)[C@H](CC(C)C)NC(=O)[C@H](CC(N)=O)NC(=O)[C@@H](C)NC(=O)[C@H](CN)NC(=O)[C@H](C(C)C)NC(=O)[C@H](Cc2ccc(-c3ccccc3)cc2)NC1=O` [Compound 1075] ({CH2CO}-FYDWL[Bip]V[Dap][dA]NLVSCA-NH2; thioether N-14), pIC50 7.30. Against it:
- C#CCOc1ccc(C[C@@H]2NC(=O)[C@H](Cc3cccc(C)c3)NC(=O)[C@H](CC(=O)O)NC(=O)[C@H](Cc3ccc(OCC(=O)O)cc3)NC(=O)[C@H](Cc3ccc(OCC(=O)O)cc3)NC(=O)CSC[C@@H](C(=O)N[C@@H](CCN)C(N)=O)NC(=O)[C@H](CCC(=O)O)NC(=O)[C@H](C(C)C)NC(=O)[C@H](CC3CCCCC3)NC(=O)[C@H](CCN)NC(=O)[C@@H](CC(C)C)NC(=O)[C@H](CCCN)NC(=O)[C@H](Cc3ccc(OCC(=O)O)cc3)NC(=O)[C@H](Cc3ccc(-c4ccccc4)cc3)NC2=O)cc1 [Compound 1834] ({CH2CO}-Y(Carboxymethyl)Y(Carboxymethyl)D[Phe(3-Me)]Y(Propargyl)[Bip]Y(Carboxymethyl)[Orn][dL][Dab][Cha]VEC[Dab]-NH2; thioether N-14) — 1.18 log units higher, 8.48
- CC(C)C[C@@H]1NC(=O)[C@H](CCCCN)NC(=O)[C@@H](CC(C)C)NC(=O)[C@H](CCN)NC(=O)[C@H](Cc2cnc[nH]2)NC(=O)[C@H](Cc2ccc(-c3ccccc3)cc2)NC(=O)[C@H](C(C)C)NC(=O)[C@H](Cc2c[nH]c3ccccc23)NC(=O)[C@H](CC(=O)O)NC(=O)[C@H](Cc2ccc(O)cc2)NC(=O)[C@H](CC(N)=O)NC(=O)CSC[C@@H](C(=O)NCC(N)=O)NC(=O)[C@H]([C@@H](C)O)NC(=O)[C@H](C(C)C)NC1=O [Compound 1140] ({CH2CO}-NYDWV[Bip]H[Dab][dL]KLVTCG-NH2; thioether N-14) — within 0.2 log units, 7.24
- CC(C)C[C@@H]1NC(=O)[C@H](Cc2c[nH]c3ccccc23)NC(=O)[C@H](CC(=O)O)NC(=O)[C@H](Cc2ccc(CN)cc2)NC(=O)[C@H](Cc2ccccc2)NC(=O)CSC[C@@H](C(=O)N[C@@H](C)C(N)=O)NC(=O)[C@H](CO)NC(=O)[C@H](C(C)C)NC(=O)[C@H](CC2CCCCC2)NC(=O)[C@H](CN)NC(=O)[C@@H](CC(C)C)NC(=O)[C@H](CCCN)NC(=O)[C@H](CCCNC(N)=O)NC(=O)[C@H](Cc2ccc(-c3ccccc3)cc2)NC1=O [Compound 2503] ({CH2CO}-F[Phe(4-CH2NH2)]DWL[Bip][Cit][Orn][dL][Dap][Cha]VSCA-NH2; thioether N-14) — within 0.2 log units, 7.48
- COc1ccc(C[C@@H]2NC(=O)CSC[C@@H](C(=O)N[C@@H](CCN)C(N)=O)NC(=O)[C@H](CCC(=O)O)NC(=O)[C@H](C(C)(C)O)NC(=O)[C@H](CC3CCCCC3)NC(=O)[C@H](CCN)NC(=O)[C@@H](CC(C)C)NC(=O)[C@H](CCCN)NC(=O)[C@H](Cc3ccc(OCC(=O)O)cc3)NC(=O)[C@H](Cc3ccc(-c4ccccc4)cc3)NC(=O)[C@H](Cc3ccc(OCC(=O)O)cc3)NC(=O)[C@H](Cc3cccc(C)c3)NC(=O)[C@H](CC(=O)O)NC(=O)[C@H](Cc3ccc(OCC(=O)O)cc3)NC2=O)cc1 [Compound 2692] ({CH2CO}-Y(Me)Y(Carboxymethyl)D[Phe(3-Me)]Y(Carboxymethyl)[Bip]Y(Carboxymethyl)[Orn][dL][Dab][Cha][Val(3-OH)]EC[Dab]-NH2; thioether N-14) — 1.03 log units higher, 8.33
- CCCC[C@@H]1NC(=O)[C@H](CCN)NC(=O)[C@@H](CC(C)C)NC(=O)[C@H](CCCN)NC(=O)[C@H](CCCNC(N)=O)NC(=O)[C@H](Cc2ccc(-c3ccccc3)cc2)NC(=O)[C@H](C(C)C)NC(=O)[C@H](Cc2c[nH]c3ccccc23)NC(=O)[C@H](CC(=O)O)NC(=O)[C@H](Cc2ccc(O)cc2)NC(=O)[C@H](CN)NC(=O)CSC[C@@H](C(=O)N[C@@H](C)C(N)=O)NC(=O)[C@H]([C@@H](C)O)NC(=O)[C@H](C(C)C)NC1=O [Compound 1158] ({CH2CO}-[Dap]YDWV[Bip][Cit][Orn][dL][Dab][Nle]VTCA-NH2; thioether N-14) — within 0.2 log units, 7.14
- CC(C)C[C@@H]1NC(=O)[C@H](CCN)NC(=O)[C@@H](CC(C)C)NC(=O)[C@@H](C)NC(=O)[C@H](C(C)C)NC(=O)[C@H](Cc2ccc(-c3ccccc3)cc2)NC(=O)[C@H](C(C)C)NC(=O)[C@H](Cc2c[nH]c3ccccc23)NC(=O)[C@H](CC(=O)O)NC(=O)[C@H](Cc2ccc(O)cc2)NC(=O)[C@H](CC(N)=O)NC(=O)CSC[C@@H](C(=O)N[C@@H](C)C(N)=O)NC(=O)[C@H]([C@@H](C)O)NC(=O)[C@H](C(C)C)NC1=O [Compound 1026] ({CH2CO}-NYDWV[Bip]V[dA][dL][Dab]LVTCA-NH2; thioether N-14) — 0.67 log units higher, 7.97
- CC(C)C[C@H]1NC(=O)[C@H](CCCN)NC(=O)[C@H](CCC(=O)O)NC(=O)[C@H](Cc2ccc(-c3ccccc3)cc2)NC(=O)[C@H](C(C)C)NC(=O)[C@H](Cc2cc(F)c(F)c(F)c2)NC(=O)[C@H](CC(=O)O)NC(=O)[C@H](Cc2ccc(OCC(=O)O)cc2)NC(=O)[C@H](CN)NC(=O)CSC[C@@H](C(=O)N[C@@H](C)C(N)=O)NC(=O)[C@H]([C@@H](C)O)NC(=O)[C@H](C(C)C)NC(=O)[C@H](CC2CCCCC2)NC(=O)[C@H](CCN)NC1=O [Compound 2149] — within 0.2 log units, 7.38
- Cc1cccc(C[C@@H]2NC(=O)[C@H](CC(=O)O)NC(=O)[C@H](Cc3ccc(OCC(=O)O)cc3)NC(=O)[C@H](CN)NC(=O)CSC[C@@H](C(=O)N[C@@H](C)C(N)=O)NC(=O)[C@H]([C@@H](C)O)NC(=O)[C@H](C(C)C)NC(=O)[C@H](CC3CCCCC3)NC(=O)[C@H](CCN)NC(=O)[C@@H](CC(C)C)NC(=O)[C@H](CCCN)NC(=O)[C@H](CCC(=O)O)NC(=O)[C@H](Cc3ccc(-c4ccccc4)cc3)NC(=O)[C@H](C(C)C)NC2=O)c1 [Compound 1302] — 0.91 log units higher, 8.21
- CCCC[C@H]1NC(=O)[C@H](CCCN)NC(=O)[C@H](CCC(=O)O)NC(=O)[C@H](Cc2ccc(-c3ccccc3)cc2)NC(=O)[C@H](C(C)C)NC(=O)[C@H](Cc2c[nH]c3ccccc23)NC(=O)[C@H](CC(=O)O)NC(=O)[C@H](Cc2ccc(C(=O)O)cc2)NC(=O)[C@H](Cc2ccc(OCC(=O)O)cc2)NC(=O)CSC[C@@H](C(=O)N[C@@H](C)C(N)=O)NC(=O)[C@H]([C@@H](C)O)NC(=O)[C@H](C(C)C)NC(=O)[C@H](CC2CCCCC2)NC(=O)[C@H](CCN)NC1=O [Compound 1455] — 0.78 log units higher, 8.08
- Cc1cccc(C[C@@H]2NC(=O)[C@H](CC(=O)O)NC(=O)[C@H](Cc3ccc(C(=O)O)cc3)NC(=O)[C@H](Cc3ccncc3)NC(=O)CSC[C@@H](C(=O)N[C@@H](C)C(N)=O)NC(=O)[C@H]([C@@H](C)O)NC(=O)[C@H](C(C)C)NC(=O)[C@H](CC(C)C)NC(=O)[C@H](CCN)NC(=O)[C@@H](CC(C)C)NC(=O)[C@H](CCCN)NC(=O)[C@H](CCCNC(N)=O)NC(=O)[C@H](Cc3ccc(-c4ccccc4)cc3)NC(=O)[C@H](C(C)C)NC2=O)c1 [Compound 1178] ({CH2CO}-[4Pal][Phe(4-COOH)]D[Phe(3-Me)]V[Bip][Cit][Orn][dL][Dab]LVTCA-NH2; thioether N-14) — 1.09 log units higher, 8.39
- CC(C)C[C@@H]1NC(=O)[C@H](CCN)NC(=O)[C@@H](CC(C)C)NC(=O)[C@H](CCCN)NC(=O)[C@H](C(C)C)NC(=O)[C@H](Cc2ccc(-c3ccccc3)cc2)NC(=O)[C@H](C(C)C)NC(=O)[C@H](Cc2c[nH]c3ccccc23)NC(=O)[C@H](CC(=O)O)NC(=O)[C@H](Cc2ccc(C(=O)O)cc2)NC(=O)[C@H](Cc2ccc(OCC(=O)O)cc2)NC(=O)CSC[C@@H](C(=O)N[C@@H](C)C(N)=O)NC(=O)[C@H]([C@@H](C)O)NC(=O)[C@H](C(C)C)NC1=O [Compound 1248] ({CH2CO}-Y(Carboxymethyl)[Phe(4-COOH)]DWV[Bip]V[Orn][dL][Dab]LVTCA-NH2; thioether N-14) — 0.61 log units higher, 7.91
- Cc1cccc(C[C@@H]2NC(=O)[C@H](CC(=O)O)NC(=O)[C@H](Cc3ccc(OCC(=O)O)cc3)NC(=O)[C@H](Cc3cccs3)NC(=O)CSC[C@@H](C(=O)N[C@@H](CCN)C(N)=O)NC(=O)[C@H]([C@@H](C)O)NC(=O)[C@H](C(C)(C)O)NC(=O)[C@H](CC3CCCCC3)NC(=O)[C@H](CCN)NC(=O)[C@@H](CC(C)C)NC(=O)[C@H](CCCN)NC(=O)[C@H](Cc3ccc(OCC(=O)O)cc3)NC(=O)[C@H](Cc3ccc(-c4ccccc4)cc3)NC(=O)[C@H](Cc3ccc(OCC(=O)O)cc3)NC2=O)c1 [Compound 2067] ({CH2CO}-[2Thi]Y(Carboxymethyl)D[Phe(3-Me)]Y(Carboxymethyl)[Bip]Y(Carboxymethyl)[Orn][dL][Dab][Cha][Val(3-OH)]TC[Dab]-NH2; thioether N-14) — 0.90 log units higher, 8.20
- CCC(C)[C@@H]1NC(=O)[C@H](Cc2ccc(-c3ccccc3)cc2)NC(=O)[C@H](C(C)C)NC(=O)[C@H](Cc2cccc(C)c2)NC(=O)[C@H](CC(=O)O)NC(=O)[C@H](Cc2ccc(C(=O)O)cc2)NC(=O)[C@H](Cc2ccncc2)NC(=O)CSC[C@@H](C(N)=O)NC(=O)[C@H](CCCN)NC(=O)[C@H](C(C)C)NC(=O)[C@H](CC2CCCCC2)NC(=O)[C@H](CCN)NC(=O)[C@@H](CC(C)C)NC(=O)[C@H](CCCN)NC1=O (stereo partly drawn) [Compound 2273] ({CH2CO}-[4Pal][Phe(4-COOH)]D[Phe(3-Me)]V[Bip][Ile(3ξ)][Orn][dL][Dab][Cha]V[Orn]C-NH2; thioether N-14) — 0.28 log units higher, 7.58
- CC(C)C[C@H]1NC(=O)[C@H](CCCN)NC(=O)[C@H](CCC(=O)O)NC(=O)[C@H](Cc2ccc(-c3ccccc3)cc2)NC(=O)[C@H](C(C)C)NC(=O)[C@H](Cc2c[nH]c3ccccc23)NC(=O)[C@H](CC(=O)O)NC(=O)[C@H](Cc2ccc(C#N)cc2)NC(=O)[C@H](CN)NC(=O)CSC[C@@H](C(=O)N[C@@H](C)C(N)=O)NC(=O)[C@H]([C@@H](C)O)NC(=O)[C@H](C(C)C)NC(=O)[C@H](CC2CCCCC2)NC(=O)[C@H](CCN)NC1=O [Compound 2187] — 0.58 log units higher, 7.88

From US20250163104A1, “MACROCYCLIC IMMUNOMODULATORS” (priority 2021, published 2025)
